{
  "source": "patent US20070161628A1",
  "about": "“Phosphodiesterase inhibitors” (GREENPHARMA, priority 2004, published 2007)",
  "key": {"[1]": {"test_system": "human type 4 phosphodiesterase (source: U-937 cells)", "assay": "Inhibition of PDE4", "description": "A quantitative measurement of the hydrolysis product [^3H]-5′-AMP was determined by scintillation."}, "[2]": {"target": "T1, human type 2 phosphodiesterase (source: U-937 cells) (Homo sapiens, UniProt O00408)", "T1 construct": "human type 2 phosphodiesterase (source: U-937 cells); endogenous in cells; host or cells: U-937 cells", "T1 sequence (O00408 whole entry)": "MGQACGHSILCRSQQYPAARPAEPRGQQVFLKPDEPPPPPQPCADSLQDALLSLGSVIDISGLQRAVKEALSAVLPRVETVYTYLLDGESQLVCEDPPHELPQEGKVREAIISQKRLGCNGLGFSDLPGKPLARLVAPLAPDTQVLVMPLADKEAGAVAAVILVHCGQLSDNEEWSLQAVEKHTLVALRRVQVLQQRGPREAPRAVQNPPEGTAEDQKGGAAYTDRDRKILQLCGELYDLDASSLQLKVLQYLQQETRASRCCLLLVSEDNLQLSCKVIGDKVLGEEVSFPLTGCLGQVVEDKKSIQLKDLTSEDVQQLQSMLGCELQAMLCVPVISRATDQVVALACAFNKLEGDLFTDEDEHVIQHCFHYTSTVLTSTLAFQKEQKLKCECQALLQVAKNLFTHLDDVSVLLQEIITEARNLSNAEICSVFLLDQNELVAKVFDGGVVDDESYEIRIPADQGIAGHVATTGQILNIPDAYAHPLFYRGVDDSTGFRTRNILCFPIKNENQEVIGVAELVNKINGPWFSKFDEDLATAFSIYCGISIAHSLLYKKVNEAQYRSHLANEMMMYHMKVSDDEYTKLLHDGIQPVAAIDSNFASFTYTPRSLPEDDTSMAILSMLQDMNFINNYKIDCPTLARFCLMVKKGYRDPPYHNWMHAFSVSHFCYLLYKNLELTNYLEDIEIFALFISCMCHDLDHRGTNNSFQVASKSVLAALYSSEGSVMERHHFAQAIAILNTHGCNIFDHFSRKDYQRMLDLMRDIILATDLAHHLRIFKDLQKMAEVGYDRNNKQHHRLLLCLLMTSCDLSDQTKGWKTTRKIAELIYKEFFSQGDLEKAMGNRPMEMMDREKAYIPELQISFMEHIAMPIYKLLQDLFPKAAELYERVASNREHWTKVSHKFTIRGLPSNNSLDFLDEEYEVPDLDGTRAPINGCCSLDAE", "assay": "Inhibition of PDE2", "type": "biochemical", "settings": "substrate 1 μM, 30 minutes at 30° C.", "description": "This novel family of compounds was tested as inhibitor of human type 2 phosphodiesterase (source: U-937 cells) by following the process described by Torphy, T. J., Zhou, H. L. and Cieslinski, L. B. (J. Pharmacol. Exp. Ther., 1992, 263, 1195-1205). […] A quantitative measurement of the hydrolysis product [^3H]-5′-AMP was determined by scintillation."}, "[3]": {"test_system": "primary neuron cultures (foetal rat cerebral cortex)", "assay": "Stimulation of neurotrophic factors: primary neuron cultures observed with and without compound", "type": "cell-based", "protocol": "The neurons are cultured in neurobasal medium using foetal rat cerebral cortex according to the procedure described in Example 1 and are photographed without staining 17 days after culturing. Culture A is a control culture without compound. […] Compounds according to the invention were evaluated for their neurotrophic properties. The idea is thus to observe the behaviour of a neuron cell culture in the absence and presence of such molecules. The molecule used in this example is S-tofisopam. The adult animals are coupled and the female rats are separated out the next day. After 16 days, a caesarean section is performed on the gestating female rats and the foetuses are placed in a Petri dish 100 mm in diameter. They are transferred to a laminar flow fume cupboard, in sterile medium. The foetuses are individually isolated and are dissected under a binocular magnifying glass in sterile medium. The cerebral cortex is isolated and placed in a tube containing antibiotic-free neurobasal medium. The tissue is dissociated by suction-ejection, into individual cells in a volume of 2 ml. The cell suspension is then delicately deposited on 2-ml of inactivated foetal calf serum. The tube is centrifuged at low gravity (800 g) for 5 minutes at room temperature. The cell pellet is recovered and the cells are resuspended in complete neurobasal medium. The cells are counted using a Mallassez haematimeter in the presence of trypan blue to determine the cell viability. Culturing is performed by placing 800 000 cells in Petri dishes 60 mm in diameter containing complete neurobasal medium, preheated and equilibrated in a CO2 incubator. These dishes were lined beforehand with a polylysine coat the day before the manipulation. The incubator temperature is set at 37° C., the CO2 level at 5% and the humidity is saturating. The Petri dishes containing the cells are then placed in the incubator. […] These cultures constitute primary neuron cultures. The neuron cultures as prepared above serve as controls. Five dishes are used in order to have a statistical approach. In the other dishes, the test molecule is added at different concentrations: 0.1 μmol/l, 1 μmol/l and 10 μmol/l. In each case, the manipulation is repeated 5 times. The neurons are examined by inverted phase-contrast microscope (Zeiss Axiovert 135) every day after inoculation. The neurons are photographed at various magnifications using a photography camera and are compared between series."}, "PDE3 (human)": {"test_system": "PDE3 (human)", "assay": "Selectivity towards PDE3", "type": "biochemical", "settings": "PDE1, 3, 5 and 6", "protocol": "(§1) D., JACKMAN S. A. and WILKE R. (Brit. J. Pharmacol. 1989, 97, 889-897); (ii, PDE3 and PDE5) Weishaar, R. E., Burrows, S. D., Kobylarz, D. C., Quade, M. M. and Evans, D. B. (Biochem. Pharmacol., 1986, 35, 787-800); (iii, PDE6) Ballard, A. S., Gingell, C. J., Tang, K., Turner, L. A., PRICE, M. E. (J. Urol, 1998, 159, 2164-2171). […] In the case of PDE 5 and 6, the substrate used is ([^3H]cGMP+cGMP) at a concentration of 1 μM for PDE5 and 2 μM for PDE6. A quantitative measurement of the hydrolysis products [^3H]-5′-AMP and [^3H]-5′-GMP was determined by scintillation."}, "trabecular bone": {"test_system": "trabecular bone", "assay": "Microarchitecture and study of bone markers in mice", "type": "in vivo, C57BL6 mice", "settings": "5 mg/kg per day, 5 days per week, 4 weeks, subcutaneous; for effect on the bone quantity and microarchitecture (BV/TV, Tb.N): distal metaphysis of the femur, microQCT", "protocol": "The object is to test the effect of the components described above on the microarchitecture of the trabecular bone. […] Results on the Bone Microarchitecture • No significant difference between the groups at the start of the treatment. No significant difference between the control (base) group and the Sham group. All the significant differences are represented by an *, *p<0.05; **p<0.01 • Several parameters (10) are recorded and analysed, such as: • BV/TV: represents the bone volume of the trabecular bone to the tissue volume, • Tb.N: trabecular number. The trabecular bone volume (BV/TV, %) and the trabecular number (Tb.N) are calculated via the “Mean Intercept Length (MIL)” method. The trabecular thickness (Tb.Th) and the trabecular space (Tb.Sp) are calculated via the method described by Hildebrand & Ruegsegger (Journal of Microscopy. 185:67-75, 1997). • BV/TV: FIG. 5 • Tb.N: FIG. 6 CONCLUSION"}, "[4]": {"test_system": "primary cultures of rat motor neuron embryonic cells", "assay": "Neuroprotective effect, apoptosis induced by suppression of BDNF", "type": "cell-based", "settings": "1 μM; apoptosis induced by BDNF deprivation", "protocol": "This test was performed according to the protocol described by Estevez A. G. et al. (J. Neurosci. 1998, 18(3), 923-931). Briefly, when primary cultures of rat motor neuron embryonic cells are deprived of “brain-derived neurotrophic factor” (BDNF), an induction of neuronal “nitric oxide synthase” (NOS) was observed, resulting in the gradual death of the neurons by apoptosis: between 18 and 24 hours after making the biological preparation, more than 60% of the neurons die. In this model of induced apoptosis, the compound described in Example 1 (S-tofisopam and analogues) protects the neurons by more than 50% at a concentration of 1 μM."}, "[5]": {"test_system": "TNF-alpha in peripheral blood mononuclear cells (PBMC)", "assay": "Anti-inflammatory properties: TNF-alpha in LPS-activated PBMC", "type": "cell-based", "settings": "LPS 1 μg/ml, 24 hours, EIA", "description": "The compounds according to the invention were evaluated for their anti-inflammatory properties on peripheral blood mononuclear cells (PBMC). More particularly, the cells were incubated for 24 hours in the presence of the test molecule, after activation with lipopolysaccharide (LPS) (1 μg/ml) according to the protocol described by Schindler, R., Mancilla, J., Endres, S., Ghorbani, R., Clark, S. C. and Dinarello, C. A. (Blood, 1990, 75, 40-47). After incubation, the concentrations of TNF-alpha were measured in the culture supernatants by the EIA method."}, "PDE1 (bovine)": {"test_system": "PDE1 (bovine)", "assay": "Selectivity towards PDE1", "type": "biochemical", "settings": "substrate [3H]cAMP+cAMP 1 μM, 30 minutes at 30° C.", "protocol": "as §1"}},
  "data": [
    {"compound": "CC[C@@H]1C(C)=NN=C(c2ccc(OC)c(OC)c2)c2cc(OC)c(OC)cc21", "note": "[S-tofisopam, (5S)-1-(3,4-dimethoxyphenyl)-5-ethyl-7,8-dimethoxy-4-methyl-5H-2,3-benzodiazepine]", "values": [
      {"measurement": "inhibition on PDE4 relative to R-tofisopam", "setting": "[1]; S-tofisopam versus R-tofisopam", "result": "ten times higher"},
      {"measurement": "IC50", "setting": "[2]", "result": 500, "unit": "nM"},
      {"measurement": "density of the neurites with added astrocyte culture supernatant", "setting": "[3]; astrocyte culture supernatant added, compared with control", "result": "increasing the density of the neurites"},
      {"measurement": "cell survival: time treated neurons remain alive after application", "setting": "[3]; control: all neurons disappeared after 15 days", "result": "almost four weeks"},
      {"measurement": "neurotrophic and neuroprotective role in neuron culture", "setting": "[3]; overall conclusion", "result": "not only a neurotrophic role but also a neuroprotective role"},
      {"measurement": "growth of the neurites versus control", "setting": "[3]; primary neuron culture, test concentrations 0.1, 1 and 10 μmol/l (FIG. 1: 50 μM added on day 8)", "result": "greater growth of the neurites than in the cells used as control"},
      {"measurement": "inhibition of the other PDEs, especially PDE3, compared with PDE4 or PDE2", "setting": "PDE3 (human)", "result": "more weakly"},
      {"measurement": "markers and cellular activity: effect on bone formation and bone resorption", "setting": "trabecular bone", "result": "uncoupling effect: anabolic on bone formation, inhibitory on bone resorption"},
      {"measurement": "effect on the bone quantity and microarchitecture (BV/TV, Tb.N)", "setting": "trabecular bone", "result": "positive effect"},
      {"measurement": "protection of the neurons", "setting": "[4]", "result": "more than 50%"},
      {"measurement": "IC50", "setting": "[5]", "result": "1 to 100", "unit": "nM"}
    ]},
    {"compound": "CCOc1cc2c(cc1OCC)C(CC)C(C)=NN=C2c1ccc(OC)c(OC)c1", "note": "(racemic)", "values": [
      {"measurement": "melting point", "result": "91 to 93", "unit": "°C"}
    ]},
    {"compound": "COCc1nc2c([nH]1)c(=O)n(C)c(=O)n2CC(C)C", "note": "[8-methoxy-IBMX]", "values": [
      {"measurement": "IC50", "setting": "PDE1 (bovine)", "result": 2900, "unit": "nM"}
    ]},
    {"compound": "CCOc1cc2c(cc1OCC)[C@H](CC)C(C)=NN=C2c1ccc(OC)c(OC)c1", "note": "[S-etofisopam, 5S-(3,4-dimethoxyphenyl)-5-ethyl-4-methyl-7,8-diethoxy-5H-2,3-benzodiazepine]", "values": [
      {"measurement": "IC50", "setting": "[1]; read-out: IC50 PDE4, substrate [3H]cAMP+cAMP 1 μM, 30 minutes at 30° C.", "result": 20, "unit": "nM"},
      {"measurement": "inhibition of the other PDEs, especially PDE3, compared with PDE4 or PDE2", "setting": "PDE3 (human)", "result": "more weakly"},
      {"measurement": "effect on the bone quantity and microarchitecture (BV/TV, Tb.N)", "setting": "trabecular bone", "result": "Identity results"},
      {"measurement": "IC50", "setting": "[5]", "result": "1 to 100", "unit": "nM"}
    ]},
    {"compound": "CCCCCC[C@@H]([C@@H](C)O)n1cnc2c(N)ncnc21", "note": "(racemic) [EHNA, reference compound]", "values": [
      {"measurement": "IC50", "setting": "[2]", "result": 2100, "unit": "nM"}
    ]},
    {"compound": "C[C@@H]1C[C@H]2[C@@H]3CCC4=CC(=O)C=C[C@]4(C)[C@@]3(F)[C@@H](O)C[C@]2(C)[C@@]1(O)C(=O)CO", "note": "[dexamethasone, reference compound]", "values": [
      {"measurement": "IC50", "setting": "[5]", "result": 4600, "unit": "nM"}
    ]},
    {"compound": "CCOc1cc2c(cc1OCC)[C@@H](CC)C(C)=NN=C2c1ccc(OC)c(OC)c1", "note": "[R-etofisopam, (R) 1-(3,4-dimethoxy-phenyl)-4-methyl-5-ethyl-7,8-diethoxy-5H-2,3-benzodiazepine]", "values": [
      {"measurement": "IC50", "setting": "[5]", "result": "1 to 100", "unit": "nM"}
    ]}
  ]
}
